Assay results as given in US5189169A (priority 1991, dated 1993).
“And” between values parts separate entries of the source, which are not always exact repeats. Equal entries are not always repeated.

What was measured:
[1] = tested on: three grassy weeds (wild oat, watergrass, foxtail); parameters: species or system Avena fatua, Echinochloa crusgalli, Setaria viridis; settings: in vivo
[2] = tested on: three broadleaf weeds (morning glory, mustard, velvetleaf); parameters: species or system Ipomoea purpurea, Brassica kaber, Abutilon theophrasti; settings: in vivo
yellow nutsedge [3] = tested on: yellow nutsedge; parameters: species or system Cyperus esculentus; settings: in vivo
yellow nutsedge [4] = tested on: yellow nutsedge; parameters: species or system Cyperus esculentus; settings: in vivo; remark: listed apart in the source
[5] = tested on: four grassy weeds: wild oat, watergrass, green foxtail and crabgrass; assay: Post-emergence herbicidal activity, grassy weeds (Table III); assay type: in vivo; settings: 2.24 kg/ha, 2-3 weeks after treatment
Description: (§1) The herbicidal effect was observed by comparing the extent of weed control in test flats treated with the compounds against that occurring in similar non-treated control flats. All were applied at 3.57 lb/A (4 kg/ha) to pre-emergence and post-emergence screening flats. An 80 gal/A (748.3 1/ha) spray volume was utilized. Post-emergence flats were seeded 12 days prior to treatment. Pre-emergence flats were seeded one day prior to treatment. Overhead watering of pre-emergence flats and soil surface watering of post-emergence flats, so as to avoid wetting the foliage, were carried out for the duration of the test.
(§2) Weed seeds were planted in a flat at a seed depth of 0.5 inch (1.3 cm). Soil for flats was prepared using loam soil fortified with 17-17-17 fertilizer (N-P2 O5 -K2 O on a weight basis) and Captan 80W fungicide. The test weeds were as follows:
(§3) The spray solutions were prepared by dissolving 240 mg of test compound in 20 ml of acetone containing 1% polyoxyethylene sorbitan monolaurate emulsifier, then adding 20 ml of water to the resulting solution. The spray solutions were applied using a linear spray table. Pre-emergence flats are raised to the level of the post-emergence foliage canopy by setting the flats on a wooden block.
(§4) The degree of weed control was visually assessed and recorded as percentage control compared to the growth of the same species in an untreated check flat of the same age. The rating scale ranges from 0 to 100%, where 0 equals no effect with plant growth equal to the untreated control, and 100 equals complete kill.
(§5) Compounds 68 to 145 in Table I were tested generally similarly to Compounds No. 1 to 67 with the following differences: The rate of application was 2 lb/acre (2.24 kg/ha), no 6-day evaluations were made, and the weeds were:
Four grassy weeds: wild oat, watergrass, green foxtail and crabgrass (Digitaria sanguinalis);
(§6) Ratings were taken 2-3 weeks after treatment.

[6] = tested on: three broadleaf weeds: wild mustard, redroot pigweed and curly dock; assay: Post-emergence herbicidal activity, broadleaf weeds (Table III); assay type: in vivo, Brassica kaber, Amaranthus retroflexus, Rumex crispus; settings: 2.24 kg/ha, 2-3 weeks after treatment
Description: as §1, §2, §3, §4, §5
Three broadleaf weeds: wild mustard, redroot pigweed (Amaranthus retroflexus) and curly dock (Rumex crispus).
as §6

[7] = tested on: three broadleaf weeds (morning glory, mustard, velvetleaf); parameters: species or system Ipomoea purpurea, Brassica kaber, Abutilon theophrasti; settings: in vivo; remark: listed apart in the source

Row | Structure (SMILES) | % Control, Pre-emergence, GR avg. [1] | % Control, Pre-emergence, BL avg. [2] | % Control, Pre-emergence, NS (yellow nutsedge [3]) | % Control, Post-emergence, NS (yellow nutsedge [4]) | % Control, Post-Emergence, GR Avg. [5] | % Control, Post-Emergence, BL Avg. [6] | % Control, Post-emergence, BL avg. [7]
1 | CCCSP(=O)(N(CCC)CCC)N(C)c1ccc(C#N)cc1 (stereo not drawn) [Compound 41] | 0% | 0% | 0% | 0% | – | – | –
2 | CCCCSP(=O)(N(CC)CC)N(CC)CCCC (stereo not drawn) [Compound 141] | – | – | – | – | 65% | 86% | –
3 | CCCSP(=O)(N(CCC)CCC)N(C)c1ccc(OC)cc1C (stereo not drawn) [Compound 65] | 0% | 0% | 0% | 0% | – | – | 70% and 76%
4 | CCCCN(CCCC)P(=O)(SCCC)N(C)c1ccc(Cl)c(Cl)c1 (stereo not drawn) [Compound 21] | 0% | 0% | 0% | 0% | – | – | 20% and 40%
5 | CCCCN(CCCC)P(=O)(SCc1ccccc1)N(C)C (stereo not drawn) [Compound 113] | – | – | – | – | 48% | 83% | –
6 | CCN(CC)P(=O)(SCc1ccccc1)N(CC)CC [Compound 94] | – | – | – | – | 30% | 70% | –
7 | CCCCN(CCCC)P(=O)(SC1CCCCC1)N(CCCC)CCCC [Compound 136] | – | – | – | – | 50% | 90% | –
8 | CCCCSP(=O)(N(C)C)N(CCCC)CCCC (stereo not drawn) [Compound 110] | – | – | – | – | 93% | 98% | –
9 | CCCSP(=O)(N(CCC)CCC)N(C)c1ccc(C(C)C)cc1 (stereo not drawn) [Compound 58] | 0% | 0% | 0% | 0% | – | – | 70% and 61%
10 | CCCCSP(=O)(N(CCC)CCC)N(C)c1ccccc1 (stereo not drawn) [Compound 121] | – | – | – | – | 59% | 72% | –
11 | CCCCSP(=O)(N(CC)CC)N1CCCCCC1 (stereo not drawn) [Compound 93] | – | – | – | – | 73% | 99% | –
12 | C=CCSP(=O)(N(C)C)N(CCCC)CCCC (stereo not drawn) [Compound 112] | – | – | – | – | 56% | 87% | –
13 | CCCN(CCC)P(=O)(SCC)N1CCCCC1 (stereo not drawn) [Compound 72] | – | – | – | – | 50% | 86% | –
14 | CCCC(CC)SP(=O)(N(CC)CC)N(CC)CC (stereo not drawn) [Compound 105] | – | – | – | – | 54.5% | 73% | –
15 | CCCCN(CCCC)P(=O)(SCCC)N(C)c1ccc(Cl)cc1OC (stereo not drawn) [Compound 18] | 0% | 0% | 0% | 0% | – | – | 30% and 60%
16 | CCCCN(CC)P(=O)(SCC)N(CC)CC (stereo not drawn) [Compound 138] | – | – | – | – | 63% | 69% | –
17 | CCCSP(=O)(N(CCC)CCC)N(C)c1ccccc1C(C)C (stereo not drawn) [Compound 56] | 31% | 6% | 0% | 0% | – | – | 85% and 90%
18 | CCN(CC)P(=O)(SC(C)C)N(CC)CC [Compound 103] | – | – | – | – | 67% | 73% | –
19 | CCCSP(=O)(N(CC)CC)N(CC)CC [Compound 68] | – | – | – | – | 40% | 87% | –
20 | CCCCCCSP(=O)(N(CCCC)CCCC)N(CCCC)CCCC [Compound 134] | – | – | – | – | 56% | 90% | –

Row | Structure (SMILES) | % Control, Pre-emergence, GR avg. [1] | % Control, Pre-emergence, BL avg. [2] | % Control, Pre-emergence, NS (yellow nutsedge [3]) | % Control, Post-emergence, NS (yellow nutsedge [4]) | % Control, Post-Emergence, GR Avg. [5] | % Control, Post-Emergence, BL Avg. [6] | % Control, Post-emergence, BL avg. [7]
21 | CCCCN(CCCC)P(=O)(SCC)N(C)C (stereo not drawn) [Compound 107] | – | – | – | – | 64% | 98% | –
22 | CCC(C)SP(=O)(N(CC)CC)N(CC)CC (stereo not drawn) [Compound 104] | – | – | – | – | 77% | 87% | –
23 | C=CCSP(=O)(N(CCC)CCC)N1CCCCCC1 (stereo not drawn) [Compound 100] | – | – | – | – | 63% | 95% | –
24 | CCCSP(=O)(N(CCC)CCC)N(C)c1cc(F)ccc1C (stereo not drawn) [Compound 67] | 0% | 16% | 0% | 0% | – | – | 95% and 100%
25 | CCCN(CCC)P(=O)(SCC)N(CC)CC (stereo not drawn) [Compound 144] | – | – | – | – | 59% | 78% | –
26 | CCN(CC)P(=O)(SC(C)C)N1CCCCCC1 (stereo not drawn) [Compound 101] | – | – | – | – | 69% | 100% | –
27 | CCCCN(CC)P(=O)(SC(C)c1ccccc1)N(CC)CC (stereo not drawn) [Compound 143] | – | – | – | – | 52% | 69% | –
28 | CCCSP(=O)(N(CCC)CCC)N1CCCCC1 (stereo not drawn) [Compound 73] | – | – | – | – | 55% | 87% | –
29 | CCCCSP(=O)(N(CCC)CCC)N1CCCCC1 (stereo not drawn) [Compound 74] | – | – | – | – | 47% | 100% | –
30 | CCCCN(CCC(C)C)P(=O)(SCCC)N(CCCC)CCC(C)C [Compound 52] | 0% | 0% | 0% | 0% | – | – | 90% and 86%
31 | CCCCN(CC)P(=O)(SCCC)N(CC)CC (stereo not drawn) [Compound 139] | – | – | – | – | 65% | 70% | –
32 | CCCSP(=O)(N(CCC)CCC)N(C)c1ccc(F)c(F)c1F (stereo not drawn) [Compound 47] | 0% | 0% | 0% | 0% | – | – | 100% and 98%
33 | CCCSP(=O)(N(CCC)CCC)N(C)c1ccc(F)cc1F (stereo not drawn) [Compound 19] | 0% | 0% | – | 0% | – | – | –
34 | CCCCN(CCCC)P(=O)(SC(C)(C)C)N(C)C (stereo not drawn) [Compound 106] | – | – | – | – | 65% | 91% | –
35 | CCCN(CCC)P(=O)(SC(C)CC)N(C)c1ccccc1 (stereo not drawn) [Compound 122] | – | – | – | – | 56% | 79% | –
36 | CCCCN(CC)P(=O)(SC1CCCCC1)N(CCC)CCC (stereo not drawn) [Compound 137] | – | – | – | – | 53% | 88% | –
37 | CCCSP(=O)(N(CC)CC)N1CCCCCC1 (stereo not drawn) [Compound 92] | – | – | – | – | 62% | 86% | –
38 | CCCN(CCC)P(=O)(SC(C)C)N(C)c1ccccc1 (stereo not drawn) [Compound 120] | – | – | – | – | 50% | 71% | –
39 | CCCCN(CC)P(=O)(SC(C)C)N(CC)CC (stereo not drawn) [Compound 140] | – | – | – | – | 68% | 66% | –
